# Activity calls are given as the source filed them. The rule behind the calls is not given here.
# How the values were obtained:
# [1] = target: Protein kinase C epsilon type (Homo sapiens) (UniProt Q02156); test: Inhibition of human PKCepsilon at 1 uM using ERMRPRKRQGSVRRRV as substrate in presence of [gamma33P]-ATP by HotSpot assay relative to control
# [2] = target: Megakaryocyte-associated tyrosine-protein kinase (Homo sapiens) (UniProt P42679); test: Inhibition of human MATK at 1 uM using poly (Glu, Tyr)4:1 as substrate in presence of [gamma33P]-ATP by HotSpot assay relative to control
# Mus musculus = test: In vivo inhibition of ALK phosphorylation in SCID Beige mouse xenografted with ALK positive human KARPAS-299 cells at 10 to 50 mg/kg, po administered once daily for 4 days and measured 24 hrs after last dose by ELISA; type: functional, organism-based; conditions: dose 10-50 mg/kg, time 5.0 day
# [3] = target: Protein kinase C delta type (Homo sapiens) (UniProt Q05655); test: Inhibition of human PRKCD at 1 uM using ERMRPRKRQGSVRRRV as substrate in presence of [gamma33P]-ATP by HotSpot assay relative to control
# [4] = target: Dual specificity protein kinase CLK4 (Homo sapiens) (UniProt Q9HAZ1); test: Inhibition of human CLK4 at 1 uM using MBP as substrate in presence of [gamma33P]-ATP by HotSpot assay relative to control
# [5] = target: Serine/threonine-protein kinase 4 (Homo sapiens, UniProt Q13043); test: Inhibition of human STK4 using KKSRGDYMTMQIG as substrate in presence of [gamma33P]-ATP by HotSpot assay
# [6] = target: Cyclin-dependent kinase 5/CDK5 activator 1 (Homo sapiens) (UniProt Q00535+Q15078); test: Inhibition of human CDK5/p25 at 1 uM using RB protein as substrate in presence of [gamma33P]-ATP by HotSpot assay relative to control; type: protein-complex assay
# [7] = target: Cytoplasmic tyrosine-protein kinase BMX (Homo sapiens) (UniProt P51813); test: Inhibition of human BMX at 1 uM using poly (Glu, Tyr)4:1 as substrate in presence of [gamma33P]-ATP by HotSpot assay relative to control
# [8] = target: Protein kinase C beta type (Homo sapiens) (UniProt P05771); test: Inhibition of human PRKCB at 1 uM using ERMRPRKRQGSVRRRV as substrate in presence of [gamma33P]-ATP by HotSpot assay relative to control
# [9] = target: Death-associated protein kinase 1 (Homo sapiens) (UniProt P53355); test: Inhibition of human DAPK1 at 1 uM using KKLNRTLSFAEPG as substrate in presence of [gamma33P]-ATP by HotSpot assay relative to control
# [10] = target: Serine/threonine-protein kinase PLK1 (Homo sapiens, UniProt P53350); test: Inhibition of human PLK1 using casein as substrate in presence of [gamma33P]-ATP by HotSpot assay
# [11] = target: Discoidin domain-containing receptor 2 (Homo sapiens) (UniProt Q16832); test: Inhibition of human DDR2 at 1 uM using KKSRGDYMTMQIG as substrate in presence of [gamma33P]-ATP by HotSpot assay relative to control
# Chain of Discoidin domain-containing receptor 2 (Homo sapiens) (Q16832 whole entry, the tested form may be a part): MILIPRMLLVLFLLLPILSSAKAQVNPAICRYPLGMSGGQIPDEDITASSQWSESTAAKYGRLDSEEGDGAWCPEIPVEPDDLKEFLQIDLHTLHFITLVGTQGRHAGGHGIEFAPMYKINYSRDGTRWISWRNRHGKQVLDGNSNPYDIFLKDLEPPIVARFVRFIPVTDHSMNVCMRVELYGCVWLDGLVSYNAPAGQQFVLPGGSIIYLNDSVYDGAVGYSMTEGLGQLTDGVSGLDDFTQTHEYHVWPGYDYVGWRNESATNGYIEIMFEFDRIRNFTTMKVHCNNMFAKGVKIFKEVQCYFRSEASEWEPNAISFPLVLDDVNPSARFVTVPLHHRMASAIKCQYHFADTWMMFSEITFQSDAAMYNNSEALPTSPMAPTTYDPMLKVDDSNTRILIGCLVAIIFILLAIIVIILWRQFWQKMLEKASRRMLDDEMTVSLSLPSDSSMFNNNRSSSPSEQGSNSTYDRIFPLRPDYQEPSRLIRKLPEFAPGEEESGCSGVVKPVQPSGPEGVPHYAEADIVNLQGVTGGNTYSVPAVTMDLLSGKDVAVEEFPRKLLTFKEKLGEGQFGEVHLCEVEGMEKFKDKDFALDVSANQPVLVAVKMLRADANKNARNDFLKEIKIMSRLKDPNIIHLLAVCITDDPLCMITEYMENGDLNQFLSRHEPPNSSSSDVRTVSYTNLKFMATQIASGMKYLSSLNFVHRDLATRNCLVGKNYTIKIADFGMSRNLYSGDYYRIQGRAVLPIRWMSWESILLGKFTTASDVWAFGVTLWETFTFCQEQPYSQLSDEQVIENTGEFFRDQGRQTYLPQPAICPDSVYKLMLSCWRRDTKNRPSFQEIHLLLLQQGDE
# [12] = target: Homeodomain-interacting protein kinase 2 (Homo sapiens) (UniProt Q9H2X6); test: Inhibition of human HIPK2 at 1 uM using MBP as substrate in presence of [gamma33P]-ATP by HotSpot assay relative to control
# Chain of Homeodomain-interacting protein kinase 2 (Homo sapiens) (Q9H2X6 whole entry, looked up): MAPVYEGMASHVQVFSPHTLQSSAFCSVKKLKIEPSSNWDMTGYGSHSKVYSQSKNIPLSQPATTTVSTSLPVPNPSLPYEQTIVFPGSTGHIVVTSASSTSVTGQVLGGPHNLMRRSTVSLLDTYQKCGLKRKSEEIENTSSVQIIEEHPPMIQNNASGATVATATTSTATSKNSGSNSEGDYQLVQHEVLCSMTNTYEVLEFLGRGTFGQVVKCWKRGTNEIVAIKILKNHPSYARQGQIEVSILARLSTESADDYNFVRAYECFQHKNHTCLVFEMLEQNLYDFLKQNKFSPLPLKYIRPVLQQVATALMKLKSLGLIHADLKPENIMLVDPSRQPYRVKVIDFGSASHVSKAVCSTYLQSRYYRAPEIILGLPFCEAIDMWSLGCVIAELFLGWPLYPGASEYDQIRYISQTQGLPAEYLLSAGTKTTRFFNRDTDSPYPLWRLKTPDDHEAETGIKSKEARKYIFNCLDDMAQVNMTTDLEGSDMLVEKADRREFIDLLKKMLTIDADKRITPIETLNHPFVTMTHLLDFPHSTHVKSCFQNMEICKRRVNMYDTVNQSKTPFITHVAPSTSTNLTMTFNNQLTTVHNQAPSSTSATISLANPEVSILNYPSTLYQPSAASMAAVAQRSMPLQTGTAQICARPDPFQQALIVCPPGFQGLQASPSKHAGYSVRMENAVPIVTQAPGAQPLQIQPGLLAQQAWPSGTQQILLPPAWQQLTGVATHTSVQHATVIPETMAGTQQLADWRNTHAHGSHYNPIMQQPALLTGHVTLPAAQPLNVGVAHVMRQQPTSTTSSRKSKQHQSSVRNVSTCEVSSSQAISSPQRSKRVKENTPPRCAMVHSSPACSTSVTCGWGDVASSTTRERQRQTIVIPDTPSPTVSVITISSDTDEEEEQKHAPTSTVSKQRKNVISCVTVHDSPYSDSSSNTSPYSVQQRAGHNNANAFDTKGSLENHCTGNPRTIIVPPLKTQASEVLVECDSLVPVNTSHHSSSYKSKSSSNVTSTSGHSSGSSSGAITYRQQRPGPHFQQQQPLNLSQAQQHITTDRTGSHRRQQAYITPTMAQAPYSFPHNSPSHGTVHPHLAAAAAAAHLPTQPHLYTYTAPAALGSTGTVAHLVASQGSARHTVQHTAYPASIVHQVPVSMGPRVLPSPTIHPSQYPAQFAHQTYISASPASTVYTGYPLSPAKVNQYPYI
# Homo sapiens = organism: Homo sapiens; test: Inhibition of human CDK2/CyclinA at 1 uM using RB protein as substrate in presence of [gamma33P]-ATP by HotSpot assay relative to control
# [13] = target: Mitogen-activated protein kinase kinase kinase kinase 2 (Homo sapiens) (UniProt Q12851); test: Inhibition of human GCK at 1 uM using MBP as substrate in presence of [gamma33P]-ATP by HotSpot assay relative to control
# [14] = target: Ribosomal protein S6 kinase beta-1 (Homo sapiens) (UniProt P23443); test: Inhibition of human P70S6K at 1 uM using KKRNRTLTK as substrate in presence of [gamma33P]-ATP by HotSpot assay relative to control
# [15] = target: Proto-oncogene tyrosine-protein kinase receptor Ret (Homo sapiens, UniProt P07949, V804L); test: Inhibition of human RET V804L mutant using RRRRRRRRRRRVYSTDYYRLFNPS as substrate in presence of [gamma33P]-ATP by HotSpot assay
# [16] = system: EML4-ALK (Homo sapiens), Q9UM73+Q9HC35 [G1202R]; conditions: BaF3, dose 500.0 nmol/L, time 3-5 weeks
# [17] = target: Rhodopsin kinase GRK7 (Homo sapiens) (UniProt Q8WTQ7); test: Inhibition of human GRK7 at 1 uM using casein as substrate in presence of [gamma33P]-ATP by HotSpot assay relative to control
# [18] = target: Ephrin type-A receptor 2 (Homo sapiens) (UniProt P29317); test: Inhibition of human EPHA2 at 1 uM using poly (Glu, Tyr)4:1 as substrate in presence of [gamma33P]-ATP by HotSpot assay relative to control
# Chain of Ephrin type-A receptor 2 (Homo sapiens) (P29317 whole entry): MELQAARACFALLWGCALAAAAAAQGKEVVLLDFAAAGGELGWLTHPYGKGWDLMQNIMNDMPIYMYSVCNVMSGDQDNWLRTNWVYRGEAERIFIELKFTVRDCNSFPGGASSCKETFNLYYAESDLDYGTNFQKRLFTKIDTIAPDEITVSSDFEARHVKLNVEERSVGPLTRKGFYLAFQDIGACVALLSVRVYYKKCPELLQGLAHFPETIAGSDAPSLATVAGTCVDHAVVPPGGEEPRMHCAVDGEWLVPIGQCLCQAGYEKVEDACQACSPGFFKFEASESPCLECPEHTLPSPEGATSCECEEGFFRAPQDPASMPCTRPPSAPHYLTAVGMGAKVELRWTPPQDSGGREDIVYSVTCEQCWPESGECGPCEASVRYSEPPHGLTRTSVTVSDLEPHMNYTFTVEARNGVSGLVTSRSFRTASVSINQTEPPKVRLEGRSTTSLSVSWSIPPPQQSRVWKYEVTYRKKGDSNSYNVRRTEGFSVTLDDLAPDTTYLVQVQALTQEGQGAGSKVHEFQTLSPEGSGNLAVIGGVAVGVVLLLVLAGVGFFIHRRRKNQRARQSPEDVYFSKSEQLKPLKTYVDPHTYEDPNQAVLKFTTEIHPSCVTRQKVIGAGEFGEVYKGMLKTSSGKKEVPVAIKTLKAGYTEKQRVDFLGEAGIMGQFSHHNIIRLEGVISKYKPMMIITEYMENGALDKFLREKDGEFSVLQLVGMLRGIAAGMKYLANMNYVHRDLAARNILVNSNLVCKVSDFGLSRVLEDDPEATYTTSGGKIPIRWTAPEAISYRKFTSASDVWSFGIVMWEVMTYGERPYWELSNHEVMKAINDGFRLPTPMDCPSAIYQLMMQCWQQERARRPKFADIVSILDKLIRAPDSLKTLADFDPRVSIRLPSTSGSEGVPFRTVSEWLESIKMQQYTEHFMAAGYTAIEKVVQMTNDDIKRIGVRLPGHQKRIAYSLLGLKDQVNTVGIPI
# [19] = target: Serine/threonine-protein kinase PAK 3 (Homo sapiens) (UniProt O75914); test: Inhibition of human PAK3 at 1 uM using RRRLSFAEPG as substrate in presence of [gamma33P]-ATP by HotSpot assay relative to control
# [20] = system: Epidermal growth factor receptor (Homo sapiens), P00533 [UNDEFINED MUTATION]; conditions: BaF3, time 72.0 hrs
# [21] = target: Protein kinase C theta type (Homo sapiens) (UniProt Q04759); test: Inhibition of human PKCtheta at 1 uM using ERMRPRKRQGSVRRRV as substrate in presence of [gamma33P]-ATP by HotSpot assay relative to control
# [22] = target: Ephrin type-B receptor 4 (Homo sapiens) (UniProt P54760); test: Inhibition of human EPHB4 at 1 uM using poly (Glu, Tyr)4:1 as substrate in presence of [gamma33P]-ATP by HotSpot assay relative to control
# Chain of Ephrin type-B receptor 4 (Homo sapiens) (P54760 whole entry): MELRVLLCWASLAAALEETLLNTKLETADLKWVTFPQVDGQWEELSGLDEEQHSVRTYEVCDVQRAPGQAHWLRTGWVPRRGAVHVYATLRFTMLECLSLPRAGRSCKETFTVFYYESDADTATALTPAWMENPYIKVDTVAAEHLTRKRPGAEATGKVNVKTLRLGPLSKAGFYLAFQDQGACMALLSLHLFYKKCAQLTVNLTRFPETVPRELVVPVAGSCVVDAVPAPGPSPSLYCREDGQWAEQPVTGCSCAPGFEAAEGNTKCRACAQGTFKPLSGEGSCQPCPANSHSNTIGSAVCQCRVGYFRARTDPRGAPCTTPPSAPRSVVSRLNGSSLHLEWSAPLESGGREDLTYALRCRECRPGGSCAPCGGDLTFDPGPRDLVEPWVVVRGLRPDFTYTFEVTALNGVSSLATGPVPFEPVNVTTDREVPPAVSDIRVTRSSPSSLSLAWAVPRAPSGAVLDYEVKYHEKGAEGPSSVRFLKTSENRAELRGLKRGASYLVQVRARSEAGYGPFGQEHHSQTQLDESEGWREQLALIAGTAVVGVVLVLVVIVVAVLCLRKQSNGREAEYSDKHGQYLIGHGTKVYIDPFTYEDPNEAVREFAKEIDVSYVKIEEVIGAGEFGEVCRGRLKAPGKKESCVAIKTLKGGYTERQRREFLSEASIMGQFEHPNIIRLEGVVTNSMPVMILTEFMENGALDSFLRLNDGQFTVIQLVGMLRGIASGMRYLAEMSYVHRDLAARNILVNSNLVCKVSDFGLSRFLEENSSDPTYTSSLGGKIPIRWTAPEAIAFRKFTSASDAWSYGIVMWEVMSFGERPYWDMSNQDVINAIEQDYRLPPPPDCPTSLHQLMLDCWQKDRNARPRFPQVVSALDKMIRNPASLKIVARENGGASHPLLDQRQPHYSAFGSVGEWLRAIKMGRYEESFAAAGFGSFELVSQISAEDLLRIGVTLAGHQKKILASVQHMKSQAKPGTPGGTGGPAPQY
# [23] = target: Cyclin-dependent kinase 2/cyclin E1 (Homo sapiens) (UniProt P24864+P24941); test: Inhibition of human CDK2/CyclinE at 1 uM using RB protein as substrate in presence of [gamma33P]-ATP by HotSpot assay relative to control; type: protein-complex assay
# [24] = target: Mitogen-activated protein kinase kinase kinase 7 (Homo sapiens) (UniProt O43318); test: Inhibition of human MAP3K7 at 1 uM using casein as substrate in presence of [gamma33P]-ATP by HotSpot assay relative to control
# [25] = target: Macrophage colony-stimulating factor 1 receptor (Homo sapiens, UniProt P07333); test: Inhibition of human FMS using poly (Glu, Tyr)4:1 as substrate in presence of [gamma33P]-ATP by HotSpot assay
# Chain of Protein kinase C epsilon type (Homo sapiens) (Q02156 whole entry): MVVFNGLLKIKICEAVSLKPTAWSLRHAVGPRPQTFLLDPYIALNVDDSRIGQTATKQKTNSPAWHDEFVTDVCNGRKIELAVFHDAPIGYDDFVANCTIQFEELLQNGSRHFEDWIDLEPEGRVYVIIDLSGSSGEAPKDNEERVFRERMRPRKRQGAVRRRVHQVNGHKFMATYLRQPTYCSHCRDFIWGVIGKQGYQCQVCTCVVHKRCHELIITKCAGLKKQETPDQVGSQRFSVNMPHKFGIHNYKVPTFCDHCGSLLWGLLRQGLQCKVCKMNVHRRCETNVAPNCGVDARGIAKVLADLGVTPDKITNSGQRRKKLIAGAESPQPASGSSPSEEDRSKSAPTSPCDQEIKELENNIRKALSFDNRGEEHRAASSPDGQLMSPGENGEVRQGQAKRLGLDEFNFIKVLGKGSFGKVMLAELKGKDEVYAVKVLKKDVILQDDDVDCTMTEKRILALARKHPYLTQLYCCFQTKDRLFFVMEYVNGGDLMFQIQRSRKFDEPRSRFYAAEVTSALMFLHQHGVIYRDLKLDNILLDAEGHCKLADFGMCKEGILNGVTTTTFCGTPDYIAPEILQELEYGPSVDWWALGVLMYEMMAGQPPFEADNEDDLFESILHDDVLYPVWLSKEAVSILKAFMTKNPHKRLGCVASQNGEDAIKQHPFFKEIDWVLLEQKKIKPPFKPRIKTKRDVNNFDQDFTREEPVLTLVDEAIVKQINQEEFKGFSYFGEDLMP
compound,measurement,setting,value
COc1cc(N2CCC(N3CCN(C)CC3)CC2)ccc1Nc1ncc(Cl)c(Nc2ccccc2P(C)(C)=O)n1 [BRIGATINIB],inhibition,[1],< 90%
same,inhibition,[2],< 90%
same,Activity,Mus musculus,Active
same,inhibition,[3],< 90%
same,inhibition,[4],< 90%
same,IC50,[5],> 1000 nM
same,inhibition,[6],< 90%
same,inhibition,[7],< 90%
same,inhibition,[8],< 90%
same,inhibition,[9],< 90%
same,IC50,[10],611 nM
same,inhibition,[11],< 90%
same,inhibition,[12],< 90%
same,inhibition,Homo sapiens,< 90%
same,inhibition,[13],< 90%
same,inhibition,[14],< 90%
same,IC50,[15],27 nM
same,inhibition,[16],Active
same,inhibition,[17],< 90%
same,inhibition,[18],< 90%
same,inhibition,[19],< 90%
same,IC90,[20],314 nM
same,inhibition,[21],< 90%
same,inhibition,[22],< 90%
same,inhibition,[23],< 90%
same,inhibition,[24],< 90%
same,IC50,[25],358 nM
